Converted amounts (≈) assume the structure as drawn. The source made the active and inactive calls. The calls are words filed in the database; no cut-off is given here.
Tests used:
[1] = test system: Staphylococcus aureus; test: Antibacterial activity against wild-type Staphylococcus aureus SA-1199 incubated for 24 hrs by broth microdilution method; format: functional
[2] = test system: Staphylococcus aureus; test: Antibacterial activity against Staphylococcus aureus SA-1199B overexpressing NorA incubated for 24 hrs by broth microdilution method; format: functional
[3] = target: T1, Quinolone resistance protein NorA (Staphylococcus aureus) (UniProt P0A0J7); test: Inhibition of NorA in Staphylococcus aureus SA-1199 assessed as potentiation of norfloxacin-mediated antibacterial activity by measuring norfloxacin MIC incubated for 24 hrs by resazurin assay
T1 sequence (whole entry): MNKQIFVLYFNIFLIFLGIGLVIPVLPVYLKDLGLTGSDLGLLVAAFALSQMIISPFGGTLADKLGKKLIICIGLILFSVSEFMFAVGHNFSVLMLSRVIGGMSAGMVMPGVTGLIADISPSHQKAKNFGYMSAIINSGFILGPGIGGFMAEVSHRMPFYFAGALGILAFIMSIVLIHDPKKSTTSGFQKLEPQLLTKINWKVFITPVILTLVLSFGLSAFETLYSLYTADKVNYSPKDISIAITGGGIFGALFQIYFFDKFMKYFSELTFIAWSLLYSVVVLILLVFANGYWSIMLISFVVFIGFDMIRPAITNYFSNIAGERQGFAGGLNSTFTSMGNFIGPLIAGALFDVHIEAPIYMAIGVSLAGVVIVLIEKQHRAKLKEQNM

[4] = target: T1, Quinolone resistance protein NorA (Staphylococcus aureus); test: Inhibition of NorA in Staphylococcus aureus SA-1199 assessed as potentiation of ethidium bromide-mediated antibacterial activity by measuring ethidium bromide MIC incubated for 24 hrs by resazurin assay
[5] = target: T1, Quinolone resistance protein NorA (Staphylococcus aureus); test: Inhibition of NorA in Staphylococcus aureus SA-1199B assessed as potentiation of ethidium bromide-mediated antibacterial activity by measuring ethidium bromide MIC incubated for 24 hrs by resazurin assay
[6] = target: T1, Quinolone resistance protein NorA (Staphylococcus aureus); test: Inhibition of NorA in Staphylococcus aureus SA-1199B assessed as potentiation of norfloxacin-mediated antibacterial activity by measuring norfloxacin MIC incubated for 24 hrs by resazurin assay
[7] = test system: Staphylococcus aureus; test: Decrease in NorA gene expression in Staphylococcus aureus SA-1199B by RT-qPCR; format: functional
[8] = test system: Staphylococcus aureus; test: Decrease in NorA gene expression in Staphylococcus aureus SA-1199B in combination with norfloxacin by RT-qPCR; format: functional

Structure (SMILES) | MIC [1] [µg/mL] | MIC [2] [µg/mL] | MIC [3] [µg/mL] | MIC [4] [µg/mL] | MIC [5] [µg/mL] | MIC [6] [µg/mL] | Activity [7] | Activity [8]
CCn1cc(C(=O)O)c(=O)c2cc(F)c(N3CCNCC3)cc21 [NORFLOXACIN] | 64 (≈ 200 µM) | 256 (≈ 802 µM) |  |  |  |  |  | 
N#CC(C#N)=NNc1cccc(Cl)c1 |  |  | 8 | 4 | 8 | 8 |  | 
CC[C@@H]1[C@@H](C)O[C@@](O)([C@@H](C)[C@H](O)[C@H](C)[C@H]2OC(=O)/C=C/C=C/[C@H](C)[C@@H]([C@@H](C)[C@@H](O)[C@H](C)[C@@]3(O)C[C@@H](O[C@H]4C[C@H](O)[C@H](O)[C@H](C)O4)[C@H](CC)[C@@H](C)O3)OC(=O)/C=C/C=C/[C@@H]2C)C[C@H]1O[C@H]1C[C@H](O)[C@H](O)[C@H](C)O1 | 0.5 (≈ 0.488 µM) | 0.5 (≈ 0.488 µM) | 1 | 1 | 1 | 1 | Active | Active

From ChEMBL document CHEMBL4825750, “Evaluation of Elaiophylin extracted from Streptomyces hygroscopicus as a potential inhibitor of the NorA efflux protein in Staphylococcus aureus: An in vitro and in silico approach” (2021)
